In brackets after ≈: the same amount, converted by molar mass. Each block holds one compound with its values, some of them ahead of it.
What was measured:
[1] = tested on: androgen-dependent prostate cancer LNCaP cells; experiment: Neutral red uptake cell viability assay, LNCaP cells; type: cell-based; details: Homo sapiens, 48 h; for viability at 50 µg/mL: 50 μg/mL, vs DMSO control; for IC50: neutral red uptake
Description: (§1) Figure 4 Concentration-response curves showing the effect of Ferula penninervis methanolic root extract against gastrointestinal cancer cells (A), prostate cancer cells (B), skin cancer cells (C) and non-cancer cells (D) and the effect of isolated sesquiterpene lactones against prostate cancer LNCaP cells (E) and prostate epithelial PNT2 cells (F). Cells were seeded in 96-well plates (3 × 10^3/well) and treated with increasing concentrations of extract (12.5–200 μg/mL) or sesquiterpene lactones (3.125–50 μg/mL); after 48 h, the cell viability was evaluated using neutral red uptake assay. Data are expressed as percentage change in viability in comparison to the vehicle (DMSO) treated control group. Each point represents the mean ± S.E.M. of three independent experiments performed in triplicates.
Androgen-dependent prostate cancer (derived from lymph node metastasis) LNCaP (ATCC® CRL-1740), androgen-insensitive prostate cancer (derived from brain metastasis) DU145 (ATCC® HTB-81), androgen-insensitive prostate cancer (derived from bone metastasis) PC3 (ATCC® CRL-1435) and prostate epithelial PNT2 (ECACC® 95012613) cell lines were kindly provided by Dr. Vera Knäuper, School of Dentistry, Cardiff University (Cardiff, UK), whereas human colorectal carcinoma Caco-2 (ATCC® HTB-37) cell line was provided by Dr. Konrad Szychowski (University of Information Technology and Management, Rzeszów, Poland). Human gastric cancer (derived from liver metastasis) N87 (ATCC® CRL-5822), human colorectal cancer HT-29 (ATCC® HTB-38), human malignant melanoma A375 (ATCC CRL-1619), human squamous cell cancer SCC-15 (ATCC® CRL-1623) cell lines, murine melanoma B16F10 (ATCC® CRL-6475) and human skin BJ fibroblast (ATCC® CRL-2522) cell lines were purchased from LGC Standards (Łomianki, Poland), whilst immortalized human keratinocyte HaCaT cell lines were bought from Cell Lines Service (CLS) GmbH (Eppelheim, Germany).
LNCaP, PNT2 and N87 cells were grown in RPMI-1640 medium; PC3 cells were cultured in Ham’s F12; DU145, Caco-2 and BJ cells were maintained in EMEM. SCC-15 cell line was grown in DMEM:F12, whilst B16F10, HaCaT and HT-29 cell lines were maintained in DMEM. All conditioned media were supplemented with 10% FBS for all cell lines, except for Caco-2 cells which were grown in EMEM supplemented with 20% FBS. The cells were cultured at 37 °C in a humidified atmosphere with 5% CO2.
(§2) Neutral red uptake (NRU) assay was performed as described by Repetto et al.. Briefly, cells were seeded in 96-well plates (3 × 10^3 cells/well) and grown overnight. The cells were then treated with increasing concentrations of F. penninervis crude extract (12.5–200 µg/mL) and isolated compounds (3.125–50 µg/mL) or the positive control 5-FU (1 µg/mL). The control cells were grown in appropriate culture medium containing equal volume of the used solvent (DMSO). After 48 h, the cells were incubated for 3 h with neutral red solution (33 µg/mL) in conditioned medium containing 1% FBS. […] The absorbance of the released neutral red was measured at λ = 540 nm using FilterMax F5 microplate reader and corrected by the absorbance at λ = 620 nm. The mean measured value for the lysate from control cells was set as 100% cellular viability and used to calculate the percentage of viable cells following extracts treatment.
(§3) All experiments were performed in triplicate and the results were expressed as mean ± standard error of mean (SEM). […]

[2] = tested on: B16F10 cells; design: method as in doi:10.1186/s13765-019-0468-7; details: 3 and 6 μM; cited from earlier work
[3] = tested on: B16F10 cells; details: cited from earlier work
[4] = tested on: αMSH-stimulated murine melanoma B16F10 cells; experiment: Melanin release in conditioned medium of αMSH-stimulated B16F10 cells; type: cell-based; details: αMSH 10 nM, 72 h; for melanin release in the medium: 10 μg/mL
Description: (§4) Figure 5 Influence of Ferula penninervis root extract and isolated sesquiterpene lactones on melanin release in conditioned medium (A), melanin content in cell lysate (B) and cell viability (C) in α-MSH-stimulated murine melanoma B16F10 cells. B16F10 cells were seeded in 6-well plates (0.5 × 10^5/well) and treated with extract (100 μg/mL) or sesquiterpene lactones (10 μg/mL); melanin production was stimulated with α-MSH (10 nM). Kojic acid (100 μg/mL) was used as positive control. After 72 h, the melanin release/content and cell viability were assessed. Data are expressed as the percentage of melanin release/content in comparison with α-MSH stimulated control cells (α-MSH+) (A,B) or as percentage change in viability in comparison to the vehicle (DMSO) treated control group (C). Each point represents the mean ± S.E.M. of three independent experiments performed in triplicates; # p < 0.001 vs. non-stimulated control cells (αMSH-); ** p < 0.01; *** p < 0.001 vs. αMSH+ cells.
B16F10 cells were plated in 6-well plates (0.5 × 10^5 cells/well) and grown overnight. The cells were treated with F. penninervis crude extract (100 µg/mL), isolated compounds (10 µg/mL) or the positive control kojic acid (100 μg/mL). Melanin production was stimulated with α-MSH (10 nM). Following 72 h, the conditioned medium and cell pellets were collected. Cell pellets were dissolved in 1 N NaOH and incubated for 2 h at 80 °C. Conditioned media and cell lysates were then transferred to a 96-well plate and the absorbance was measured at λ = 405 nm using FilterMax F5 microplate reader. The content of protein in cell lysates was establish using Bradford assay. The melanin released in the conditioned medium and the melanin content in cell lysates (μg melanin/mg protein) were calculated with the help synthetic melanin calibration curves. The melanin release/content was expressed as the percentage of melanin release/content in comparison with α-MSH stimulated control cells without the tested samples.

[5] = tested on: erythroleukemia K562 cells; design: method as in PMID 24320993; details: cited from earlier work
[6] = tested on: MCF-7 cells; design: method as in PMID 24320993; details: cited from earlier work
[7] = tested on: αMSH-stimulated murine melanoma B16F10 cells; experiment: Melanin content in cell lysate of αMSH-stimulated B16F10 cells; type: cell-based; details: 100 μg/mL, αMSH 10 nM, 72 h
Description: as §4, with “Each point represents the mean ± S.E.M. of three independent experiments performed in triplicates; # p < 0.001 vs. non-stimulated control cells (αMSH-); ** p < 0.01; *** p < 0.001 vs. αMSH+ cells.” left out
B16F10 cells were plated in 6-well plates (0.5 × 10^5 cells/well) and grown overnight. […] Conditioned media and cell lysates were then transferred to a 96-well plate and the absorbance was measured at λ = 405 nm using FilterMax F5 microplate reader. […] The melanin released in the conditioned medium and the melanin content in cell lysates (μg melanin/mg protein) were calculated with the help synthetic melanin calibration curves. The melanin release/content was expressed as the percentage of melanin release/content in comparison with α-MSH stimulated control cells without the tested samples.

[8] = tested on: prostate epithelial PNT2 cells; experiment: Neutral red uptake cell viability assay, PNT2 cells; type: cell-based; details: 48 h
Description: as §1, with “triplicates. […]” for “triplicates.”
Neutral red uptake (NRU) assay was performed as described by Repetto et al.. […] The absorbance of the released neutral red was measured at λ = 540 nm using FilterMax F5 microplate reader and corrected by the absorbance at λ = 620 nm. The mean measured value for the lysate from control cells was set as 100% cellular viability and used to calculate the percentage of viable cells following extracts treatment.
as §3

[9] = tested on: αMSH-stimulated murine melanoma B16F10 cells; experiment: Neutral red uptake viability at 72 h in αMSH-stimulated B16F10 cells; type: cell-based; details: extract 100 μg/mL, lactones 10 μg/mL, kojic acid 100 μg/mL, vs αMSH- cells
Description: To evaluate the effects of F. penninervis methanolic root extract and its isolated guaiane-type sesquiterpene lactones on the melanin synthesis and release, the melanin assay was carried out. For this purpose, the production of melanin in murine melanoma B16F10 cells was stimulated with αMSH. […] Furthermore, to exclude the possibility that the observed inhibitory effects on the melanin production might have resulted through a reduced number of viable cells, neutral red uptake assay at 72 h was performed (Figure 5C and Figure S17). […] To our knowledge, there are no previous studies reporting the melanin production inhibitory potential of Ferula genus or isolated constituents. Nevertheless, the anti-melanogenic effects of different phytochemicals were repeatedly evidenced in various cell-based assays.
as §4, §2

Structure (SMILES): O=c1[nH]cc(F)c(=O)[nH]1 [5-FU, 5-Fluorouracil, reference compound]
viability at 5 µg/mL ([1]; positive control at 5 μg/mL): 50.6 ± 3.28%

Structure (SMILES): COc1cc(/C=C/C(=O)N2CCC=CC2=O)cc(OC)c1OC [Piperlongumine]
effect on cell growth [2]: no inhibitory effects on the cell growth
total melanin production ([3]; 3 and 6 μM): significantly reduced the total melanin production

Structure (SMILES): CC=C(C)C(=O)OC1CC(C)=C2C(=O)C=C(C)C2C2OC(=O)C(C)(OC(=O)C(C)C)C12 (stereo not drawn) [daucoguaianolactone F, daucoguainolactone F]
melanin release in the medium [4]: inactive

Structure (SMILES): C=C1C(=O)O[C@@H]2[C@H]1CC[C@]1(C)[C@H](OC(=O)/C(C)=C/C)C=CC(=C)[C@@H]21 [dehydrooopodin]
IC50 [5]: 5 µM
IC50 [6]: 15 µM

Structure (SMILES): CC1=CC(=O)C2=C(C)C[C@H](OC(=O)C(C)C)[C@@H]3[C@@H](OC(=O)[C@@]3(C)OC(=O)C(C)C)[C@H]12 [ferupennin Q, 2-oxo-8α,11α-diisobutyroyloxy-5βH,6αH,7αH-gua-1(10),3-diene-6,12-olide]
melanin release in the medium [4]: inactive

Structure (SMILES): O=c1cc(CO)occ1O [kojic acid, reference compound]
melanin release in the conditioned medium ([4]; 100 μg/mL): 35.88 ± 3.45 % of αMSH+ control cells
melanin content in the cell lysate [7]: but not the melanin content

IC50 [1]: 23.3 µg/mL (≈ 57.8 µM)
Structure (SMILES): C/C=C(/C)C(=O)O[C@H]1CC(C)=C2C(=O)C=C(C)[C@H]2[C@@H]2OC(=O)[C@@](C)(OC(C)=O)[C@@H]21 [laferin]
cell survival ([8]; 50 µg/mL (highest tested concentration)): 53.85 ± 1.71%
viability at 50 µg/mL [1]: 14.4 ± 1.69%
viability of B16F10 cells [9]: without influencing the viability of B16F10 cells

Structure (SMILES): C=C(C)C(=O)O[C@H]1CC(C)=C2C(=O)C=C(C)[C@H]2[C@@H]2OC(=O)[C@@](C)(OC(=O)C(C)C)[C@@H]21 [oferin]
viability of B16F10 cells [9]: without influencing the viability of B16F10 cells

IC50 [1]: 31 µg/mL (≈ 79.9 µM)
Structure (SMILES): C=C(C)C(=O)O[C@H]1CC(C)=C2C(=O)C=C(C)[C@H]2[C@@H]2OC(=O)[C@@](C)(OC(C)=O)[C@@H]21 [olgin]
melanin release in the medium [4]: 40.67–65.48 % of αMSH+ control cells
effect on viability of PNT2 control cells ([8]; 3.125–50 μg/mL): did not significantly affect the viability
viability at 50 µg/mL [1]: 43.1 ± 3.52%
viability of B16F10 cells [9]: without influencing the viability of B16F10 cells

Structure (SMILES): C=C(C)C(=O)O[C@H]1CC(C)=C2C(=O)C=C(C)[C@H]2[C@@H]2OC(=O)[C@@](C)(OC(=O)C(=C)C)[C@@H]21 [olgoferin]
viability of B16F10 cells [9]: without influencing the viability of B16F10 cells

Structure (SMILES): C[C@@H]1O[C@@H](O[C@@H]2[C@@H](O)[C@H](O)[C@@H](CO)O[C@H]2c2c(O)cc(O)c3c(=O)cc(-c4ccc(O)cc4)oc23)[C@H](O)[C@H](O)[C@H]1O [vitexin-2ʺ-O-rhamnoside]
decrease of intracellular melanin production compared to untreated cells ([3]; 5 μM): threefold
